According to patent US20230121313A1 (priority 2019, published 2023):

What was measured:
[1] = tested on: subjects with MDD at imminent risk for suicide; assay: MADRS suicide item, Study […]2001; format: in vivo, human; conditions: 84 mg
Excerpt: (§1) • a. Changes from baseline to Day 2 and Day 25 for the MADRS total score • b. Changes from baseline to Day 1 4-hours postdose, Day 2 and Day 25 for the MADRS Suicide Item • c. Changes from baseline to Day 1 4-hours postdose, Day 2, and Day 25 for the clinical global judgment of suicide risk from the Suicide Ideation and Behavior Assessment Tool (SIBAT) • d. Sustained response (Onset of Clinical Response) defined as at least 50% reduction from baseline in MADRS total score with onset on Day 1 that is maintained through the end of the double-blind phase (Day 25) • e. Changes from baseline to Day 1 4-hours postdose, Day 2, and Day 25 for the Beck Scale for Suicidal Ideation (BSS) • f. Changes from baseline to Day 1 4-hours postdose and Day 25 for the Beck Hopelessness Scale
Results of the change from baseline over time for the suicide item from the MADRS assessment can be found in Attachment 1.

[2] = tested on: adult subjects with TRD; conditions: human, in vivo, other: intranasal
Procedure: The MOAA/S was used to measure treatment-emergent sedation, with correlation to levels of sedation defined by the American Society of Anesthesiologists (ASA) continuum. The MOAA/S scores range from 0=no response to painful stimulus (corresponds to ASA continuum for general anesthesia) to 5=readily responds to name spoken in normal tone (awake; corresponds to ASA continuum for minimal sedation).
On each intranasal dosing day, the MOAA/S was performed every 15 minutes from pre-dose to t=+1.5 hours post-dose. If the score was ≤3 at any time during the 1.5 hours post-dose interval, the MOAA/S was performed every 5 minutes until a score of 4 is reached (at which point a frequency of every 15 minutes can be resumed until t=+1.5 hours post dose). […] For subjects with a score of 4, the assessment was repeated every 15 minutes. […]
The Modified Observer's Assessment of Alertness/Sedation (MOAA/S) was used to measure treatment-emergent sedation with correlation to levels of sedation defined by the American Society of Anesthesiologists (ASA) continuum. The MOAA/S scores ranged from 0 (No response to painful stimulus; corresponds to ASA continuum for general anesthesia) to 5 (Readily responds to name spoken in normal tone [awake]; corresponding to ASA continuum for minimal sedation).

[3] = tested on: subjects with MDD at imminent risk for suicide; assay: Beck Hopelessness Scale (BHS), Study […]2001; format: in vivo, human; conditions: 84 mg; for BHS total score change, Diff. of LS Means (minus Placebo): ANCOVA LOCF; for BHS total score, change from baseline, mean / BHS total score, change from baseline, median / BHS total score, mean / BHS total score, median: LOCF, N 35
Excerpt: as §1
The BHS is a self-reported measure to assess one's level of negative expectations or pessimism regarding the future. It consists of 20 true-false items that examine the respondent's attitude over the past week by either endorsing a pessimistic statement or denying an optimistic statement. For every statement, each response is assigned a score of 0 or 1. The total BHS score is a sum of item responses and ranges from 0 to 20, with a higher score representing a higher level of hopelessness.

[4] = tested on: subjects with MDD at imminent risk for suicide; conditions: human, in vivo, other: intranasal, 84 mg
Procedure: The CADSS was measured prior to the start of each dose, at 40 minutes, 2 hours, and 4 hours postdose.

[5] = tested on: subjects with MDD at imminent risk for suicide; assay: MADRS total score, Study […]2001 (change, sustained response, response, remission); format: in vivo, human; conditions: for MADRS total score change, Diff. of LS Means (minus Placebo): ANCOVA LOCF; for MADRS total score, change from baseline, mean / MADRS total score, change from baseline, median / MADRS total score, mean / MADRS total score, median: LOCF, ITT N = 35
Excerpt: Primary efficacy variable/Primary Time point: Change from baseline (Day 1, predose) to Day 1, 4-hours postdose in MADRS total score. The MADRS consists of 10 items that cover all of the core depressive symptoms, with each item scoring from 0 (item is not present or is normal) to 6 (severe or continuous presence of the symptom). A higher score represents a more severe condition.
as §1
The primary efficacy endpoint is the change in MADRS total score from baseline to Day 1: 4-hours postdose. MADRS total scores range from 0 to 60. […] As this is a phase 2a proof-of-concept study, statistical significance is based on a two-sided alpha level of 0.20. All p-values presented in this document are two-sided.
Sustained response is defined as at least 50% reduction from baseline in MADRS total score with onset on Day 1: 4 hours postdose that is maintained through the end of the double-blind phase (Day 25). Four subjects in the esketamine 84 mg group and 2 subjects in the placebo group had sustained response throughout the double-blind phase.

**Q.** Which results are given for `CN[C@]1(c2ccccc2Cl)CCCCC1=O` [esketamine, (S)-2-(2-chlorophenyl)-2-(methylamino)cyclohexanone]?
**A.** MADRS suicide item, change from baseline, Med ([1]; Day 39(FU), N 26): −5.0; MADRS suicide item (Suicidal Thoughts), Med ([1]; Day 46(FU) LOCF, N 27): 0.0; MADRS suicide item, change from baseline, Med ([1]; Day 46(FU) LOCF, N 27): −4.0; MADRS suicide item (Suicidal Thoughts), Med ([1]; Day 46(FU), N 25): 0.0; MADRS suicide item, change from baseline, Med ([1]; Day 46(FU), N 25): −4.0; MADRS suicide item (Suicidal Thoughts), Med ([1]; Day 53(FU) LOCF, N 27): 0.0; MADRS suicide item, change from baseline, Med ([1]; Day 53(FU) LOCF, N 27): −4.0; MADRS suicide item (Suicidal Thoughts), Med ([1]; Day 53(FU), N 24): 0.0; MADRS suicide item, change from baseline, Med ([1]; Day 53(FU), N 24): −5.0; MADRS suicide item (Suicidal Thoughts), Med ([1]; Day 67(FU) LOCF, N 27): 0.0; MADRS suicide item, change from baseline, Med ([1]; Day 67(FU) LOCF, N 27): −4.0; MADRS suicide item (Suicidal Thoughts), Med ([1]; Day 67(FU), N 26): 0.0; MADRS suicide item, change from baseline, Med ([1]; Day 67(FU), N 26): −4.0; MADRS suicide item (Suicidal Thoughts), Med ([1]; Day 81(FU), N 24): 0.0; MADRS suicide item, change from baseline, Med ([1]; Day 81(FU), N 24): −5.0; MADRS suicide item (Suicidal Thoughts), Med ([1]; End Point(DB), N 35): 0.0; MADRS suicide item, change from baseline, Med ([1]; End Point(DB), N 35): −4.0; MADRS suicide item (Suicidal Thoughts), Med ([1]; End Point(FU), N 27): 0.0; MADRS suicide item, change from baseline, Med ([1]; End Point(FU), N 27): −5.0; Sedation (MOAA/S) resolved by (postdose) [2]: ≤ 1.5 h; BHS total score change, Diff. of LS Means (minus Placebo) ([3]; Day 1 (DB): 4 H): −1.5; BHS total score, change from baseline, mean ([3]; Day 1 (DB): 4 H): −4.1; BHS total score, change from baseline, median ([3]; Day 1 (DB): 4 H): −2.0; BHS total score, mean ([3]; Day 1 (DB): 4 H): 12.3; BHS total score, median ([3]; Day 1 (DB): 4 H): 14.0; BHS total score change, Diff. of LS Means (minus Placebo) ([3]; End Point (DB)): −2.3; BHS total score, change from baseline, mean ([3]; End Point (DB)): −10.3; BHS total score, change from baseline, median ([3]; End Point (DB)): −11.0; BHS total score, mean ([3]; End Point (DB)): 6.2; BHS total score, median ([3]; End Point (DB)): 4.0; CADSS dissociative and perceptual change symptoms resolved by (postdose) [4]: ≤ 2 h; MADRS total score change, Diff. of LS Means (minus Placebo) ([5]; 84 mg, Day 1 (DB): 4 H): −5.3; MADRS total score, change from baseline, mean ([5]; 84 mg, Day 1 (DB): 4 H): −13.4; MADRS total score, change from baseline, median ([5]; 84 mg, Day 1 (DB): 4 H): −14.0; MADRS total score, mean ([5]; 84 mg, Day 1 (DB): 4 H): 25.1; MADRS total score, median ([5]; 84 mg, Day 1 (DB): 4 H): 23.0; MADRS total score change, Diff. of LS Means (minus Placebo) ([5]; 84 mg, Day 2 (DB)): −7.2; MADRS total score, change from baseline, mean ([5]; 84 mg, Day 2 (DB)): −19.3; MADRS total score, change from baseline, median ([5]; 84 mg, Day 2 (DB)): −19.0; MADRS total score, mean ([5]; 84 mg, Day 2 (DB)): 19.2; MADRS total score, median ([5]; 84 mg, Day 2 (DB)): 18.0; MADRS total score change, Diff. of LS Means (minus Placebo) ([5]; 84 mg, End Point (DB)): −4.5; MADRS total score, change from baseline, mean ([5]; 84 mg, End Point (DB)): −26.4; MADRS total score, change from baseline, median ([5]; 84 mg, End Point (DB)): −25.0; MADRS total score, mean ([5]; 84 mg, End Point (DB)): 12.1; MADRS total score, median ([5]; 84 mg, End Point (DB)): 8.0; Day 25 sustained response based on MADRS total score: No, subjects (%) ([5]; 84 mg, ITT): 88.2%; Day 25 sustained response based on MADRS total score: Yes, subjects (%) ([5]; 84 mg, at least 50 percent reduction with onset on Day 1 maintained through Day 25, ITT): 11.8%; Subjects with sustained response (≥50% MADRS reduction from Day 1 4 h through Day 25) ([5]; […]2001, 84 mg): Four; MADRS total score: mean change from baseline (SD) ([5]; […]2001, 84 mg, Day 1: 4-hours postdose): −13.4 (9.03); MADRS total score: mean change from baseline (SD) ([5]; […]2001, 84 mg, Day 2 (DB)): −19.3 (12.02); MADRS total score: mean change from baseline (SD) ([5]; […]2001, 84 mg, End Point (DB)): −26.4 (14.52); Subjects who discontinued due to lack of efficacy ([5]; […]2001, 84 mg, double-blind phase): 1 subject; MADRS total score: least-square mean difference (SE) from placebo, ANCOVA ([5]; […]2001, esketamine 84 mg, Day 1, 4-hours postdose): −5.3 (2.10)
